Several values for one entry are separate records, joined by “and”; a condition that tells them apart may be missing. Equal entries are not always repeated.
Test system: citric acid (1M) evoked cough in guinea pigs
Assay: Citric acid (1M) aerosol-evoked coughs and sneezes in conscious guinea pigs after oral pre-treatment
Format: in vivo, Male Dunkin Hartley guinea pigs
Experimental: The guinea pig species used in one study was twenty four Male Dunkin Hartley guinea pigs, each weighing between 300 and 350 g, which were supplied by Marshall Bioresources Ltd, UK.
A test compound, Ifenprodil, and Gefapixant (in powder form) were prepared and formulated by initially adding 100% propylene glycol at the required volume for the final treatment buffer. The additional buffer ingredients were added in a stepwise fashion, initially solutol and then captisol. Each ingredient was added in a volume equivalent to that which is required for the final volume of treatment buffer for the stock formulation.
In particular, for Gefapixant, this was 0.7 mg/mL, a concentration that delivers 3.5 mg/Kg in a dose volume of 5 mL/Kg. For Ifenprodil, this was 0.3 mg/mL, a concentration that delivers 1.5 mg/Kg in a dose volume of 5 mL/Kg.
Prior to the addition of each buffer ingredient, the test compound formulations were sonicated for 15 min using a Branson 1510 Sonicator. Afterwards, the initial formulation of the test compound and Gefapixant were diluted with a prepared buffer vehicle to provide additional dosing formulations. This was 0.01 to 0.2 mg/ml, preferably 0.06 mg/mL, a dose that delivers 0.3 mg/Kg in a dose volume of 5 mL/Kg.
The final test compound buffer vehicle comprised of 10:10:80 mix of propylene glycol:20% Solutol in PBS:5% Captisol in PBS.
All final test and control formulations were sonicated for 30 min prior to dosing to generate an even suspension or to ensure that the formulation had visibly dissolved.
The animals were first pre-treated (5 mL/Kg, p.o.) with the vehicle, the test compound, or Gefapixant prior to tussive agent (citric acid) exposure, using the amounts set out in Table 1 below. In each case, the route of administration of the treatment was oral.
Animals receiving Gefapixant (3.5 mg/Kg) were dosed 2 hours prior to tussive agent exposure. Animals receiving Ifenprodil (1.5 mg/Kg) were dosed 30 minutes prior to tussive agent exposure.
10 min prior to the tussive evaluation, each animal was individually placed into a purpose built exposure chamber with a supplied airflow through a nebuliser of 2 L/min, and allowed to settle into its new environment.
Following the acclimatisation period, each animal was then exposed for 10 min to an aerosol of 1M citric acid using an ultrasonic nebuliser (Aerogen) set at a nominal liquid consumption rate of 0.6 mL/min.
Coughs and sneezes elicited during the 10 minute aerosol of 1M citric acid, and a subsequent 5 minute observation period, were recorded manually to monitor the animal's welfare. […] The data was analysed for onset of cough, cough numbers and frequency, and sneezes.
The following measurements and assessments were taken for each guinea pig: • Mean total number of coughs evoked in each treatment group • Mean onset of first cough in each group • Mean number of coughs per minute during citric acid exposure in each treatment group
Inter-group deviations were statistically analyzed by a one-way analysis of variance (ANOVA). In the case of significant difference in the mean values among the different levels of treatment, comparisons versus the citric acid vehicle group were carried out using the Dunnett's test. p<0.05 was considered statistically significant.

[1] = Mean of n=6 animals, 10 min Citric acid (1M) exposure, Gefapixant 3.5 mg/Kg p.o., Ifenprodil 1.5 mg/Kg
[2] = Mean of n=6 animals, Post Exposure (5 mins) after 10 min Citric acid (1M), Gefapixant 3.5 mg/Kg p.o., Ifenprodil 1.5 mg/Kg
[3] = Total of n=6 animals, 10 min Citric acid (1M) exposure, Gefapixant 3.5 mg/Kg p.o., Ifenprodil 1.5 mg/Kg
[4] = Total of n=6 animals, Post Exposure (5 mins) after 10 min Citric acid (1M), Gefapixant 3.5 mg/Kg p.o., Ifenprodil 1.5 mg/Kg
[5] = individual animals (ID 1-6), 10 min Citric acid (1M) exposure, Gefapixant 3.5 mg/Kg p.o., Ifenprodil 1.5 mg/Kg
[6] = individual animals (ID 1-6), Post Exposure (5 mins) after 10 min Citric acid (1M), Gefapixant 3.5 mg/Kg p.o., Ifenprodil 1.5 mg/Kg

## C[C@@H]([C@H](O)c1ccc(O)cc1)N1CCC(Cc2ccccc2)CC1 (racemic) [Ifenprodil, 4-[2-(4-benzylpiperidin-1-ium-1-yl)-1-hydroxypropyl] phenol; 2,3,4-trihydroxy-4-oxobutanoate]
10 min citric acid (1M) exposure + 5 min post exposure, group mean, n=6
  Total Coughs, Mean: 17.17
10 min citric acid (1M) exposure + 5 min post exposure, individual animals 1-6
  Total Coughs, individual animal: 16 (2×) and 17 and 23 and 19 and 12
10 min citric acid (1M) exposure + 5 min recovery, Gefapixant 3.5 mg/Kg p.o. 2 hrs prior, Ifenprodil 1.5 mg/Kg p.o. 30 min prior, n=6
  average number of coughs per animal (total number of coughs): 17.17 coughs per animal
Ifenprodil 1.5 mg/kg (p<0.01), Gefapixant 3.5 mg/kg (p<0.05)
  reduction in mean cough frequency vs untreated control: 42%
[1]
  Sneezes, Observation Period 0-1, group Mean: 0.2
  Sneezes, Observation Period 1-2, group Mean: 0.5
  Sneezes, Observation Period 2-3, group Mean: 0.3
  Sneezes, Observation Period 3-4, group Mean: 0.3
  Sneezes, Observation Period 4-5, group Mean: 0.5
  Sneezes, Observation Period 5-6, group Mean: 0.3
  Sneezes, Observation Period 6-7, group Mean: 0.7
  Sneezes, Observation Period 7-8, group Mean: 0.5
  Sneezes, Observation Period 8-9, group Mean: 0.0
  Sneezes, Observation Period 9-10, group Mean: 0.0
[2]
  Sneezes, Observation Period 10-11, group Mean: 0.0
  Sneezes, Observation Period 11-12, group Mean: 0.0
  Sneezes, Observation Period 12-13, group Mean: 0.0
  Sneezes, Observation Period 13-14, group Mean: 0.0
  Sneezes, Observation Period 14-15, group Mean: 0.0
Mean of n=6 animals, whole observation period 0-15 (10 min Citric acid (1M) exposure + Post Exposure 5 mins), Gefapixant 3.5 mg/Kg p.o., Ifenprodil 1.5 mg/Kg
  Total Sneezes, group Mean: 3.33
[3]
  Sneezes, Observation Period 0-1, group Total: 1.0
  Sneezes, Observation Period 1-2, group Total: 3.0
  Sneezes, Observation Period 2-3, group Total: 2.0
  Sneezes, Observation Period 3-4, group Total: 2.0
  Sneezes, Observation Period 4-5, group Total: 3.0
  Sneezes, Observation Period 5-6, group Total: 2.0
  Sneezes, Observation Period 6-7, group Total: 4.0
  Sneezes, Observation Period 7-8, group Total: 3.0
  Sneezes, Observation Period 8-9, group Total: 0.0
  Sneezes, Observation Period 9-10, group Total: 0.0
[4]
  Sneezes, Observation Period 10-11, group Total: 0.0
  Sneezes, Observation Period 11-12, group Total: 0.0
  Sneezes, Observation Period 12-13, group Total: 0.0
  Sneezes, Observation Period 13-14, group Total: 0.0
  Sneezes, Observation Period 14-15, group Total: 0.0
Citric acid (1M) exposure, Gefapixant 3.5 mg/Kg p.o., Ifenprodil 1.5 mg/Kg p.o., group mean, n=6
  first onset of cough: 59.8 s
Citric acid (1M) exposure, Gefapixant 3.5 mg/Kg p.o., Ifenprodil 1.5 mg/Kg p.o., n=6
  average number of sneezes per animal: 3.33 sneezes per animal
Citric acid (1M) exposure, group mean, n=6
  Onset (sec), Mean: 59.8 s
Citric acid (1M) exposure, individual animals 1-6
  Onset (sec), individual animal: 65 sec and 69 sec and 43 sec (2×) and 72 sec and 67 sec
[5]
  Sneezes, Observation Period 0-1: 0 (5×) and 1
  Sneezes, Observation Period 1-2: 1 (3×) and 0 (3×)
  Sneezes, Observation Period 2-3: 0 (4×) and 1 (2×)
  Sneezes, Observation Period 3-4: 1 (2×) and 0 (4×)
  Sneezes, Observation Period 4-5: 0 (4×) and 1 and 2
  Sneezes, Observation Period 5-6: 1 (2×) and 0 (4×)
  Sneezes, Observation Period 6-7: 1 (4×) and 0 (2×)
  Sneezes, Observation Period 7-8: 0 (3×) and 1 (3×)
  Sneezes, Observation Period 8-9: 0
  Sneezes, Observation Period 9-10: 0
[6]
  Sneezes, Observation Period 10-11: 0
  Sneezes, Observation Period 11-12: 0
  Sneezes, Observation Period 12-13: 0
  Sneezes, Observation Period 13-14: 0
  Sneezes, Observation Period 14-15: 0
Individual animals (ID 1-6), whole observation period 0-15 (10 min Citric acid (1M) exposure + Post Exposure 5 mins), Gefapixant 3.5 mg/Kg p.o., Ifenprodil 1.5 mg/Kg
  Total Sneezes: 4 and 3 (3×) and 5 and 2
Min 0-1 of citric acid (1M) exposure, group mean, n=6
  Cough, observation period 0-1, Mean: 0.7
Min 0-1 of citric acid (1M) exposure, individual animals 1-6
  Cough, observation period 0-1, individual animal: 0 (3×) and 1 (2×) and 2
Min 0-1 of citric acid (1M) exposure, sum over 6 animals
  Cough, observation period 0-1, Total: 4.0
Min 1-2 of citric acid (1M) exposure, group mean, n=6
  Cough, observation period 1-2, Mean: 1.5
Min 1-2 of citric acid (1M) exposure, individual animals 1-6
  Cough, observation period 1-2, individual animal: 1 (3×) and 2 (3×)
Min 1-2 of citric acid (1M) exposure, sum over 6 animals
  Cough, observation period 1-2, Total: 9.0
Min 2-3 of citric acid (1M) exposure, group mean, n=6
  Cough, observation period 2-3, Mean: 2.3
Min 2-3 of citric acid (1M) exposure, individual animals 1-6
  Cough, observation period 2-3, individual animal: 3 (4×) and 2 and 0
Min 2-3 of citric acid (1M) exposure, sum over 6 animals
  Cough, observation period 2-3, Total: 14.0
Min 3-4 of citric acid (1M) exposure, group mean, n=6
  Cough, observation period 3-4, Mean: 2.2
Min 3-4 of citric acid (1M) exposure, individual animals 1-6
  Cough, observation period 3-4, individual animal: 3 (2×) and 2 (3×) and 1
Min 3-4 of citric acid (1M) exposure, sum over 6 animals
  Cough, observation period 3-4, Total: 13.0
Min 4-5 of citric acid (1M) exposure, group mean, n=6
  Cough, observation period 4-5, Mean: 2.5
Min 4-5 of citric acid (1M) exposure, individual animals 1-6
  Cough, observation period 4-5, individual animal: 3 (4×) and 2 and 1
Min 4-5 of citric acid (1M) exposure, sum over 6 animals
  Cough, observation period 4-5, Total: 15.0
Min 5-6 of citric acid (1M) exposure, group mean, n=6
  Cough, observation period 5-6, Mean: 2.3
Min 5-6 of citric acid (1M) exposure, individual animals 1-6
  Cough, observation period 5-6, individual animal: 2 (4×) and 3 (2×)
Min 5-6 of citric acid (1M) exposure, sum over 6 animals
  Cough, observation period 5-6, Total: 14.0
Min 6-7 of citric acid (1M) exposure, group mean, n=6
  Cough, observation period 6-7, Mean: 1.3
Min 6-7 of citric acid (1M) exposure, individual animals 1-6
  Cough, observation period 6-7, individual animal: 1 (3×) and 2 and 0 and 3
Min 6-7 of citric acid (1M) exposure, sum over 6 animals
  Cough, observation period 6-7, Total: 8.0
Min 7-8 of citric acid (1M) exposure, group mean, n=6
  Cough, observation period 7-8, Mean: 1.7
Min 7-8 of citric acid (1M) exposure, individual animals 1-6
  Cough, observation period 7-8, individual animal: 1 (2×) and 2 (4×)
Min 7-8 of citric acid (1M) exposure, sum over 6 animals
  Cough, observation period 7-8, Total: 10.0
Min 8-9 of citric acid (1M) exposure, group mean, n=6
  Cough, observation period 8-9, Mean: 1.0
Min 8-9 of citric acid (1M) exposure, individual animals 1-6
  Cough, observation period 8-9, individual animal: 0 (2×) and 1 (3×) and 3
Min 8-9 of citric acid (1M) exposure, sum over 6 animals
  Cough, observation period 8-9, Total: 6.0
Min 9-10 of citric acid (1M) exposure, group mean, n=6
  Cough, observation period 9-10, Mean: 0.8
Min 9-10 of citric acid (1M) exposure, individual animals 1-6
  Cough, observation period 9-10, individual animal: 1 (3×) and 0 (2×) and 2
Min 9-10 of citric acid (1M) exposure, sum over 6 animals
  Cough, observation period 9-10, Total: 5.0
Min 10-11, post exposure, group mean, n=6
  Cough, observation period 10-11, Mean: 0.7
Min 10-11, post exposure, individual animals 1-6
  Cough, observation period 10-11, individual animal: 0 (2×) and 1 (4×)
Min 10-11, post exposure, sum over 6 animals
  Cough, observation period 10-11, Total: 4.0
Min 11-12, post exposure, group mean, n=6
  Cough, observation period 11-12, Mean: 0.2
Min 11-12, post exposure, individual animals 1-6
  Cough, observation period 11-12, individual animal: 1 and 0 (5×)
Min 11-12, post exposure, sum over 6 animals
  Cough, observation period 11-12, Total: 1.0
Min 12-13, post exposure, group mean, n=6
  Cough, observation period 12-13, Mean: 0.0
Min 12-13, post exposure, individual animals 1-6
  Cough, observation period 12-13, individual animal: 0
Min 12-13, post exposure, sum over 6 animals
  Cough, observation period 12-13, Total: 0.0
Min 13-14, post exposure, group mean, n=6
  Cough, observation period 13-14, Mean: 0.0
Min 13-14, post exposure, individual animals 1-6
  Cough, observation period 13-14, individual animal: 0
Min 13-14, post exposure, sum over 6 animals
  Cough, observation period 13-14, Total: 0.0
Min 14-15, post exposure, group mean, n=6
  Cough, observation period 14-15, Mean: 0.0
Min 14-15, post exposure, individual animals 1-6
  Cough, observation period 14-15, individual animal: 0
Min 14-15, post exposure, sum over 6 animals
  Cough, observation period 14-15, Total: 0.0
Oral administration, conscious guinea pigs with citric acid
  anti-tussive effect (in words): shows efficacy in preventing and/or alleviating coughing

Reference: patent US12472170B2, “Use of glutamate 2B receptor antagonists and sigma receptor agonists as antitussives” (Seyltx, Inc., priority 2019, dated 2025)
